Measurements reported in US6399648B1, “N-oxides of heterocyclic ester, amide, thioester, or ketone for vision and memory disorders” (GPI NIL Holdings, Inc., priority 1998, dated 2002).
Read-outs that look alike come from different tables or passages of the source. Marks after values point to notes of the source that are not given here.

Experiments:
[1] = test system: retinal ganglion cells and optic nerve axons; experiment: In vivo retinal ganglion cell and optic nerve axon tests after optic nerve transection; conditions: for Efficacy in protecting retinal ganglion cell axons from degeneration following optic nerve transection: Table V; for RGC Counts (mean density of Fluoro-gold labeled retinal ganglion cells in 400 μm × 400 μm fields): 10 mg/kg/day sc;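 on all read-outs here: adult male Sprague Dawley rats with bilateral intraorbital optic nerve transection after retrograde fluorogold labeling of retinal ganglion cells, examined on fixed retinas and optic nerve stumps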
Description: The extent of degeneration reduction or prevention in retinal ganglion cells and optic nerve axons was determined in a vision loss model utilizing surgical optic nerve transection to simulate mechanical damage to the optic nerve. The effects of several neuroimmunophilin FKBP ligands on retinal ganglion cells neuroprotection and optic nerve axon density was determined experimentally, comparing 14 day and 28 day neuroimmunophilin FKBP ligand treatments.
Retinal ganglion cells were pre-labeled by bilateral stereotaxic injection of the fluorescent retrogradely transported marker fluoro-gold (FG, 0.5 microliters of 2.5% solution in saline) at the coordinates of the LGNd (4.5 millimeters post β, 3.5 millimeters lateral, 4.6 millimeters below dura). Four days later, FG labeled rats underwent a second surgery for microsurgical bilateral intraorbital optic nerve transection 4-5 millimeters behind the orbit.
Experimental animals were divided into six experimental groups of six rats (12 eyes) per group. […] A second group received the same neuroimmunophilin FKBP ligand dose for 28 days.
All animals were sacrificed 90 days after optic nerve transection and perfused pericardially with formalin. All eyes and optic nerves stumps were removed. Cases were excluded from the study if the optic nerve vasculature was damaged or if FG labeling was absent in the retina.
Retinas were removed from eyes and prepared for wholemount analysis. For each group, five eyes with dense and intense FG labeling were selected for quantitative analysis using a 20 power objective. Digital images were obtained from five fields in the central retina (3-4 millimeters radial to optic nerve head).
Proximal and distal optic nerve stumps were identified, measured, and transferred to 30% sucrose saline. […] Sections including the region 1-2 mm behind the orbit were reacted for RT97 neurofilament immunohistochemistry. Analysis of optic nerve axon density was performed using a 63 power oil immersion lens, a Dage 81 camera, and the Simple Image Analysis program. RT97 positive optic nerve axons were counted in three 200 μm by 200 μm fields per nerve. The area of the nerve was also determined for each case at 10 power.

FKBP12 = FKBP12 (Homo sapiens, UniProt P62942); experiment: Inhibition of FKBP peptidyl-prolyl isomerase (rotamase) activity, apparent Ki; assay type: biochemical
Description: The inhibition of the prolyl peptidyl cis-trans isomerase activity of FKBP may be measured as an indicator of this affinity.
These values are obtained as apparent Ki's.
The cis-trans isomerization of an alanine-proline bond in a model substrate, N-succinyl-Ala-Ala-Pro-Phe-p-nitroanilide, is monitored spectrophotometrically in a chymotrypsin-coupled assay, which releases para-nitroanilide from the trans form of the substrate. The inhibition of this reaction caused by the addition of different concentrations of inhibitor is determined, and the data is analyzed as a change in first-order rate constant as a function of inhibitor concentration to yield the apparent Ki values.
In a plastic cuvette are added 950 mL of ice cold assay buffer (25 mM HEPES, pH 7.8, 100 mM NaCl), 10 mL of FKBP (2.5 mM in 10 mM Tris-Cl pH 7.5, 100 mM NaCl, 1 mM dithiothreitol), 25 mL of chymotrypsin (50 mg/ml in 1 mM HCl) and 10 mL of test compound at various concentrations in dimethyl sulfoxide. The reaction is initiated by the addition of 5 mL of substrate (succinyl-Ala-Phe-Pro-Phe-para-nitroanilide, 5 mg/mL in 2.35 mM LiCl in trifluoroethanol).
The absorbance at 390 nm versus time is monitored for 90 seconds using a spectrophotometer and the rate constants are determined from the absorbance versus time data files.

[2] = Clearance (Table V comments, no method given); assay type: in vitro ADME
retinal ganglion cells = experiment: Retinal ischemia: degeneration of retinal ganglion cells, optic nerve axons and myelin; assay type: in vivo, rat; conditions: 10 mg/kg s.c. 1 hour prior to ischemia and 10 mg/kg/day for next four days, 28 days after ischemia
Description: Retinal ganglion cells were retrogradely labeled in adult rats by bilateral injection of fluorogold in their lateral geniculate nuclei. Labeled ganglion cells in the normal rat retina appear as white profiles against the dark background (FIG. 1A). Complete retinal ischemia was produced by infusing normal saline solution into the retinal vitreous cavity of each eye until the intraocular pressure exceeded arterial blood pressure. 28 days after the ischemic episode extensive degeneration of retinal ganglion cell was evidenced by massive reduction in the density of fluorogold labeled cells (FIG. 1B).

aged mice = experiment: Morris watermaze spatial learning and memory in aged rodents; assay type: in vivo; conditions: aged impaired mice, 10 mg/kg daily, retention testing after 3 weeks of dosing
Description: The Morris watermaze is widely used for assessing spatial memory formation and retention in experimental animals. The test depends on the animals ability to utilize spatial visual information in order to locate a submerged escape platform in a water tank. It is important that the tank itself be as devoid of specific visual features as possible—thus, it is always circular in shape, the sides are kept smooth and in uniform dull colors, and the water is rendered opaque with nontoxic watercolor pigment or powdered milk. This is to ensure that the animal navigates only by the use of more distant visual cues, or by the use of intra-maze cues specifically provided by the experimenter. The animals' path, speed, and swim time are tracked with a ceiling camera for later computerized analysis. Over the course of several successive trials, spatial learning can therefore be defined as a drop of distance swum, or time elapsed, from placement in the tank until escape onto the invisible platform. The procedure involved using-three-month old (young) and 18-19 month old male C57BL/6Nia aged) mice which habituated to the well known and conventional Morris watermaze during a 4 trials/day, 3-4 day visible platform training phase. […] Swim Distances (cm) were analyzed in a 7×5 ANOVA including Groups and Blocks (1-5) as factors in the analysis, treating Blocks as a repeated measure.

[3] = Table V comments, read-out: Ki rotomase
[4] = ONT, 14 days treatment, 90 days after transection, ± SEM
[5] = ONT, 14 days treatment, 90 days after transection
[6] = ONT, 28 days treatment, 90 days after transection
[7] = ONT, 28 days treatment, 90 days after transection, ± SEM

Sequence of FKBP12 (P62942 whole entry, species assumed): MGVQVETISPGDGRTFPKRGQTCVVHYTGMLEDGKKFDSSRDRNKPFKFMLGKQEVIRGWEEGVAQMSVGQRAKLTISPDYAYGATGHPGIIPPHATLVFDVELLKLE

For CCC(C)(C)C(=O)C(=O)N1CCCC1C(=O)O (centres unmarked) [L], the “Efficacy in protecting retinal ganglion cell axons from degeneration following optic nerve transection” value (“Efficacy” below) ([1]; ± SEM) was 7.8% ± 3.0% SEM and the Ki (FKBP12; [3]) was over 7.74 µM.
Molecule CCC(C)(C)C(=O)C(=O)N1CCCCC1C(=O)OC(CCc1ccccc1)CCc1ccccc1 (centres unmarked) [E] has a Clearance ([2]; unit printed μl/ml) of 41.8 μl/ml.
With CCC(C)(C)C(=O)C(=O)N1CCCC1C(=O)CCCCc1cccnc1 (centres unmarked) [J] the “Efficacy” value ([1]; ± SEM) was 15.8% ± 4.8% SEM and the Clearance [2] was 1.5 µL/min.
With CCC(C)(C)C(=O)C(=O)N1CCC[C@H]1C(=O)SCCC(c1ccccc1)c1ccccc1 [M] the “Efficacy” value ([1]; ± SEM) was −6.3% + 3.9% SEM.
For O=C(SCCCc1ccccc1)C1CCCN1C(=O)NC12CC3CC(CC(C3)C1)C2 (centres unmarked) [B], the “Efficacy” value ([1]; ± SEM) was 100.0% ± 5.2% SEM.
For O=C(SCCCc1ccccc1)C1CCCN1S(=O)(=O)Cc1ccccc1 (centres unmarked) [C], the “Efficacy” value ([1]; ± SEM) was 60.4% ± 3.1 SEM.
With O=C(OCCCc1cccnc1)[C@@H]1CCCN1C(=S)NC1CCCCC1 [I] the “Efficacy” value ([1]; ± SEM) was 23.8% ± 5.3 SEM.
CCC(C)(C)C(=O)C(=O)N1CCC[C@H]1C(=O)OCCCc1ccc[n+]([O-])c1 [Compound 1, 3-(3-Pyridyl)-1-propyl(2S)-1-(1,1-Dimethyl-1,2-dioxopentyl)-2-pyrrolidine-carboxylate, N-oxide] showed a Ki (FKBP12; Table B, rotamase inhibition, read-out: Ki) of 0.225 µM.
In the case of CCC(C)(C)C(=O)C(=O)N1CCC[C@H]1C(=O)OCCCc1cccnc1 [GPI 1046], the “protection of fluorogold labeled retinal ganglion cells” value (retinal ganglion cells) is reported as “noticeable protection of a large proportion of the vulnerable ganglion cell population”, the “preservation of axons of protected neurons in the proximal stump” value ([1]; Example 13, 10 mg/kg/day s.c. for 28 days, 90 days after transection) is reported as “preserved the axons of virtually all protected neurons” and the “perikaryal neuroprotection: ganglion cell population spared” value ([1]; Example 13, 10 mg/kg/day s.c. for 28 days, sacrificed 90 days after transection) is reported as 25%. The “RGC Counts (mean density of Fluoro-gold labeled retinal ganglion cells in 400 μm × 400 μm fields)” value [1, 4] was “small but not significant increase”, the “Distal optic nerve myelin basic protein Density, loss” value [1, 5] was “slightly increase the density of myelin” and the “Distal optic nerve stump shrinkage (cross sectional area vs sham)” value [1, 5] was “did not protect against shrinkage of the distal stump”. The “ON axon Count (axonal density multiplied by ON area)” value [1, 5] was 6820, the “increased ON axon density (adjusted for optic nerve diameter)” value [1, 5] was 1.5× and the “ON Axon density (RT97 labeled optic nerve axons in 200 μm × 200 μm region)” value [1, 4] was 569 ± 23. For the same molecule, the “Proximal optic nerve myelin basic protein Density, % recovery” value [1, 4] was 1.6 ± 3.0 SEM % recovery, the “RGC Counts (mean density of Fluoro-gold labeled retinal ganglion cells in 400 μm × 400 μm fields)” value ([1]; ONT, 28 days treatment, 90 days after transection, SEM) was 67.9 ± 5.8 and the “Distal optic nerve stump, less shrinkage” value [1, 6] was “prevented cross sectional shrinkage of the distal stump”. For the same molecule, the “ON axon Count (axonal density multiplied by ON area)” value [1, 6] was 22,861*, the “increased ON axon density (adjusted for optic nerve diameter)” value [1, 6] was 5.0× and the “ON Axon density (RT97 labeled optic nerve axons in 200 μm × 200 μm region)” value [1, 7] was “significant increase”. For the same molecule, the “Proximal optic nerve myelin basic protein Density, % recovery” value [1, 7] was 70 ± 6.3 SEM % recovery, the “Efficacy” value ([1]; ± SEM) was 60.5% ± 3.9 SEM and the “spatial memory performance (swim distance) in retention testing” value (aged mice) was “significantly enhanced spatial memory performance”. The Clearance [2] was 63.8 µL/min.
In the case of CCC(C)(C)C(=O)C(=O)N1CCCCC1C(N)=O (centres unmarked) [H], the “Efficacy” value ([1]; ± SEM) is reported as 30.3% ± 8.0% SEM.
With CCC(C)(C)C(=O)C(=O)N1CCCCC1C(=O)SCCC(c1ccccc1)c1ccccc1 (centres unmarked) [Compound K] the “Efficacy” value ([1]; ± SEM) was 13.0% ± 4.2% SEM and the Clearance [2] was 4.5 µL/min.
For CCC(C)(C)C(=O)C(=O)N1CCCCC1C(=O)O (centres unmarked) [G], the “Efficacy” value ([1]; ± SEM) was 34.0% ± 4.8% SEM and the Ki (FKBP12; [3]) was over 10 µM.
With CN(C)C(=O)N1CCCC1C(=O)SCCCc1ccccc1 (centres unmarked) [N] the Clearance ([2]; unit printed μl/ml) was 21.9 μl/ml.
